Assay results reported in US12312346B2, “Pyridopyrimidine compounds and methods of their use” (Tufts Medical Center, Inc., priority 2018, dated 2025).
Entries after “also recorded” stand apart in the source; their conditions may differ.

Tests used:
[1] = system: differentiated SVF cells (white adipocyte formation); experiment: Oil Red O staining of differentiated SVF cells with WAT inducers; assay type: cell-based; settings: vs vehicle
Procedure: FIG. 8A is an image of Oil Red O staining of differentiated SVF cells treated with a vehicle or compound GD (5 μM) in the presence of white adipose tissue (WAT) inducers. Scale bar: 100 μM
FIG. 8C is an image of Oil Red O staining of differentiated SVF cells treated with a vehicle or compound GD (0.1 μM) in the presence of white adipose tissue (WAT) inducers. Scale bar: 400 μM for the top 2 images, and 100 μM for the bottom two images.
Beige cells are associated with protection against obesity and metabolic syndrome (WO 2017/161253). Accordingly, compound GD and related compounds of the invention can be used for treating obesity and related metabolic diseases.

mouse WT-MEFs = experiment: Cell cycle and cell number, WT-MEFs; assay type: cell-based
Procedure: FIG. 6A is a series of charts showing representative cell cycle profiles of mouse WT-MEFs treated with a vehicle (V), PD (0.5 μM), LEE (10 μM), or compound GD at 1, 5, and 10 μM for 6 days.
FIG. 6B is a histogram summarizing the cell cycle distribution in FIG. 6A. Data shown are mean±S.D. (n=6); *P<0.05 vs vehicle control, t-test.
FIG. 6C is a chart showing the percentage of S-G2-M cells in FIG. 6B.
FIG. 6D is a bar graph summarizing the cell number of WT-MEFs treated with PD (0.5 μM), LEE (10 μM), or compound GD at varying doses for 6 days. Data shown are mean±S.D. (n=6); *P<0.05 vs vehicle control, t-test.
HCl salt of 6-acetyl-5-methyl-2-((4-(piperazin-1-ylmethyl)thiazol-2-yl)amino)pyrido[2,3-d]pyrimidin-7(8H)-one (Compound GD) prepared in Example 1 was examined for its inhibitory activity in cancer cell lines and WT and CDK6^−/− mouse embryonic fibroblasts (MEFs) and stromal vascular fractions (SVFs). MEFs and SVFs are enriched with mesenchymal stem cells (MSC) and pre-adipocytes which can differentiate into a variety of cell types, including adipocytes.

[2] = system: phosphorylated pRB at SER-780 in MDA-MB231 cells; experiment: Immunoblot of phosphorylated pRB (SER-780) and PI staining, MDA-MB231; assay type: cell-based
Procedure: FIG. 5A is an image of a representative immunoblot showing the levels of phosphorylated pRB at SER-780 in MDA-MB231 and HPBALL cells following treatment of these cells with a vehicle, PD, or compound GD for 24 hours. Tubulin was used as loading control.
(§1) Table 2: Experimental Procedures: sensitivity to CDK6 kinase activity inhibition was tested by incubating different cell lines in the presence of CDK6 inhibitor GD007/PBS for either 24 hours for detecting the status of pRB-780 phosphorylation, or 5 days for determining the effect of GD007 on cell proliferation. (1) By immunoblotting (WB), we will detect phospho-pRB-S^780, one of the substrates of CDK6 kinase; (2) By using FACS analysis, we will stain treated cells with Propidium Iodide (PI), a commonly used fluorescent intercalator, to measure the subpopulation of cell cycle to reveal any impact of CDK6 inhibition on cell proliferation; (3) cell numbers will be counted using hemocytometer.

[3] = Fat pad mass and body weight of WT mice on normal chow diet; assay type: in vivo; settings: WT (B6) mice, NCD
Procedure: FIGS. 9A and 9B are images showing a close view of the iWAT (FIG. 9A) and eWAT (FIG. 9B) and mass of fat pads from mice treated with GD or PBS, as indicated. The mass of various fat pads was normalized to body weight of mice on NCD at the end of experiments. Data shown are mean±S.D. (n=8 for each group), *p<0.05, t-test, GD vs PBS.
FIG. 9D is a graph showing body weight of age-matched female WT mice on NCD over 27-day observation period. GD/PBS commenced by gavage daily for 21 days at 200 mg/kg/day at age of 6-weeks-old. Body weight shown are mean±S.D. (n=8 for each group), *p<0.05, t-test, GD vs PBS.

Breast Cancer: MCF-7 = experiment: PI staining and pRB-780 immunoblot, MCF-7; assay type: cell-based; settings: PI staining and WB: P-RB-780
Procedure: as §1

[4] = system: human leukemia cell line T-ALL1 (with WT Notch1); experiment: Cell cycle (PI staining, S-G2-M cells) and cell number, T-ALL1; assay type: cell-based
Procedure: FIG. 2A is a series of charts showing representative cell cycle profiles of human leukemia cell line T-ALL1 (with WT Notch1) treated with a vehicle (V) (for palbociclib (PD) or compound GD), PD (0.5 μM), or compound GD at 1, 2.5, 5, 10, and 20 μM for 6 days.
FIG. 2B is a histogram summarizing the cell cycle distribution of the T-ALL1 cell line in FIG. 2A. Data shown are mean±S.D. (n=6); *P<0.05 vs its vehicle controls, t-test.
FIG. 2C is a chart showing the percentage of S-G2-M cells in samples in FIGS. 2A and 2B. […]
as §1

[5] = system: phosphorylated pRB at SER-780 in U87 cells; experiment: Immunoblot of phosphorylated pRB (SER-780), U87; assay type: cell-based, human
Procedure: FIG. 5C is an image of a representative immunoblot showing the levels of phosphorylated pRB at SER-780 in U87 cells following treatment of these cells with a vehicle, PD, or compound GD for 24 hours. Tubulin was used as loading control.
as §1

Prostate Cancer: DU145 = experiment: pRB-780 immunoblot, DU145; assay type: cell-based; settings: WB: P-RB-780
Procedure: as §1

[6] = 200 mg/kg/day for 21 days, normalized to body weight

SMILES: CC(=O)c1c(C)c2cnc(Nc3nc(CN4CCNCC4)cs3)nc2[nH]c1=O [Compound GD, 6-acetyl-5-methyl-2-((4-(piperazin-1-ylmethyl)thiazol-2-yl)amino)pyrido[2,3-d]pyrimidin-7(8H)-one]
- white adipocyte formation ([1]; GD 0.1 μM, FIG. 8C): inhibited white adipocyte formation
- white adipocyte formation ([1]; GD 5 μM, FIG. 8A): inhibited white adipocyte formation
- IC50 (mouse WT-MEFs; 144 h, mouse WT-MEF, 6 days, read-out: IC50 (proliferation, percentage of S-G2-M cells)): ~1200 nM
- fraction of dead cells (effect on cell viability) relative to PD (mouse WT-MEFs; WT-MEFs, FIG. 6B, GD 10 μM vs PD 0.5 μM): smaller
- Compound GD Efficacy ([2]; MDA-MB231, PI staining and WB: P-RB-780): Efficacious
- pRB phosphorylation ([2]; breast cancer cell line MDA-MB231, 24 hours): inhibits pRB phosphorylation
- body weight, most significant reduction compared to PBS treated mice ([3]; 200 mg/kg/day): 7.1 % reduction
- fat pad mass vs PBS-treated mice ([3]; 200 mg/kg/day by gavage for 21 days, 200 mg/kg/day): dramatically and significantly decreased; also recorded: reduced fat mass
- fat pad mass, eWAT, reduction vs PBS-treated mice [3, 6]: ~2.0 fold reduction
- fat pad mass, iWAT, reduction vs PBS-treated mice [3, 6]: ~1.42 fold reduction
- Compound GD Efficacy (Breast Cancer: MCF-7): No
- IC50 ([4]; Homo sapiens, TALL-1, 144 h, T-ALL1, 6 days, read-out: IC50 (percentage of S-G2-M cells, growth inhibition)): ~1100 nM
- Compound GD Efficacy ([4]; Leukemic cells: TALL1, PI Staining, and cell number counting): Efficacious
- Compound GD Efficacy ([5]; Brain Tumor: U87 human primary glioblastoma cell line, WB: P-RB-780): Efficacious
- pRB phosphorylation ([5]; glioblastoma cell line U87, 24 hours): inhibits pRB phosphorylation
- Compound GD Efficacy (Prostate Cancer: DU145): No
